Assay results: US20020137929A1, “1 - (3-heterocyclylphenyl) isothiourea, -isourea, -guanidine and -amidine herbicidal agents” (Intellectual Property Department, BASF Aktiengesellschaft, priority 1998, published 2002)

Assays:
AMBEL (Ragweed, Common) = assay: Preemergence herbicidal evaluation; format: in vivo, Ambrosia artemisifolia; details: rated 4-5 weeks after treatment
In short: (§1)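 Rating at 4–5 wk post-spray on a 0–9 visual scale vs control. Application: aqueous acetone, ~0.0156–0.500 kg/ha, to soil surface after seeding, preemergence.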

[1] = test system: ECHORC (Watergrass (Calif.)); assay: Postemergence weed control under flooded paddy conditions; format: in vivo, Echinochloa oryzoides; details: postemergence weeds, 3-4 weeks after treatment
In short: (§2)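 With weeds 3 to 5 cm tall and rice at the 1.5 to 2.5 leaf stage, containers were flooded and water held 1.5 to 3 cm above soil. Compounds in 50/50 v/v aqueous/acetone went into the flood water at about 0.0313 to 0.500 kg/ha a.i. Effects were visually rated 0–9 against controls after three to four weeks in the greenhouse.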

[2] = test system: TRZAWR (Wheat, Winter, cv Riband); assay: Postemergence herbicidal evaluation; format: in vivo, Triticum aestivum; details: postemergence
In short: (§3)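 Compound is applied as a foliar spray to seedlings about two weeks old, formulated in equal parts acetone and water with 0.5% TWEEN 20 and delivered at 40 psi to give about 0.0156–0.500 kg per hectare. Injury is rated visually 0–9 after four to five weeks.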

GALAP (Galium) = assay: Preemergence herbicidal evaluation; format: in vivo, Galium aparine; details: rated 4-5 weeks after treatment
In short: as §1

ABUTH (Velvetleaf) = assay: Postemergence herbicidal evaluation; format: in vivo, Abutilon theophrasti; details: postemergence
In short: as §3

SETVI (Foxtail, Green) [3] = assay: Preemergence herbicidal evaluation; format: in vivo, Setaria viridis; details: rated 4-5 weeks after treatment
In short: as §1

[4] = test system: SAGPY (Arrowhead (Pygmaea)); assay: Postemergence weed control under flooded paddy conditions; format: in vivo, Sagittaria pygmaea; details: postemergence weeds, 3-4 weeks after treatment
In short: as §2

[5] = test system: GLXMAW (Soybean, Williams); assay: Postemergence herbicidal evaluation; format: in vivo, Glycine max, (L.) Merr. cv Williams; details: postemergence
In short: as §3

ZEAMX (Corn, Field) = assay: Postemergence herbicidal evaluation; format: in vivo, Zea mays; details: postemergence
In short: as §3

CYPIR (Rice Flatsedge) = assay: Preemergence weed control under flooded paddy conditions; format: in vivo, Cyperus iria; details: rated 3-4 weeks after treatment
In short: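 Silt loam, seeds in top 0.5 cm; flood held 1.5-3 cm; test cpd as acetone/water 50/50 into flood water, ~0.0313-0.500 kg/ha a.i.; greenhouse 3-4 wk; visual 0-9 score vs control.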

SETVI (Foxtail, Green) [6] = assay: Postemergence herbicidal evaluation; format: in vivo, Setaria viridis; details: postemergence
In short: as §3

[7] = test system: CHEAL (Lambsquarters, Common); assay: Postemergence herbicidal evaluation; format: in vivo, Chenopodium album; details: postemergence
In short: as §3

CYPSE (Flatsedge) = assay: Postemergence weed control under flooded paddy conditions; format: in vivo, Cyperus serotinus; details: postemergence weeds, 3-4 weeks after treatment
In short: as §2

ORYSAT (Rice, Tebonnet) = assay: Postemergence herbicidal evaluation; format: in vivo, Oryza sativa, (L.) Tebonnet; details: postemergence
In short: as §3

CCOC(=O)CN1C(=O)C(CC)SC1=Nc1cc(-n2c(=O)cc(C(F)(F)F)n(C)c2=O)c(F)cc1Cl (stereo not drawn) [Compound 13, Ethyl 2-{{2-chloro-5-[3,6-dihydro-3-methyl-2,6-dioxo-4-(trifluoromethyl)-1(2H)-pyrimidinyl]-4-fluorophenyl}imino}-5-ethyl-4-oxo-3-thiazolidineacetate]
AMBEL preemergence herbicidal rating (AMBEL (Ragweed, Common); rate 0.0156 kg/ha): 0.0
AMBEL preemergence herbicidal rating (AMBEL (Ragweed, Common); rate 0.0313 kg/ha): 2.0
AMBEL preemergence herbicidal rating (AMBEL (Ragweed, Common); rate 0.0625 kg/ha): 6.0
AMBEL preemergence herbicidal rating (AMBEL (Ragweed, Common); rate 0.1250 kg/ha): 9.0
AMBEL preemergence herbicidal rating (AMBEL (Ragweed, Common); rate 0.2500 kg/ha): 9.0
Herbicidal rating ECHORC ([1]; rate 0.0313 kg/ha): 5.5
Herbicidal rating ECHORC ([1]; rate 0.0625 kg/ha): 7.0
Herbicidal rating ECHORC ([1]; rate 0.1250 kg/ha): 8.0
Herbicidal rating ECHORC ([1]; rate 0.2500 kg/ha): 9.0
TRZAWR herbicidal rating ([2]; rate 0.0156 kg/ha): 4.5
TRZAWR herbicidal rating ([2]; rate 0.0313 kg/ha): 4.5
TRZAWR herbicidal rating ([2]; rate 0.0625 kg/ha): 6.0
TRZAWR herbicidal rating ([2]; rate 0.1250 kg/ha): 6.0
GALAP preemergence herbicidal rating (GALAP (Galium); rate 0.0156 kg/ha): 0.0
GALAP preemergence herbicidal rating (GALAP (Galium); rate 0.0313 kg/ha): 0.0
GALAP preemergence herbicidal rating (GALAP (Galium); rate 0.0625 kg/ha): 0.0
GALAP preemergence herbicidal rating (GALAP (Galium); rate 0.1250 kg/ha): 0.0
GALAP preemergence herbicidal rating (GALAP (Galium); rate 0.2500 kg/ha): 0.0
ABUTH herbicidal rating (ABUTH (Velvetleaf); rate 0.0156 kg/ha): 9.0
ABUTH herbicidal rating (ABUTH (Velvetleaf); rate 0.0313 kg/ha): 9.0
ABUTH herbicidal rating (ABUTH (Velvetleaf); rate 0.0625 kg/ha): 9.0
ABUTH herbicidal rating (ABUTH (Velvetleaf); rate 0.1250 kg/ha): 9.0
SETVI preemergence herbicidal rating (SETVI (Foxtail, Green) [3]; rate 0.0156 kg/ha): 2.5
SETVI preemergence herbicidal rating (SETVI (Foxtail, Green) [3]; rate 0.0313 kg/ha): 4.5
SETVI preemergence herbicidal rating (SETVI (Foxtail, Green) [3]; rate 0.0625 kg/ha): 9.0
SETVI preemergence herbicidal rating (SETVI (Foxtail, Green) [3]; rate 0.1250 kg/ha): 9.0
SETVI preemergence herbicidal rating (SETVI (Foxtail, Green) [3]; rate 0.2500 kg/ha): 9.0
Herbicidal rating SAGPY ([4]; rate 0.0313 kg/ha): 0.0
Herbicidal rating SAGPY ([4]; rate 0.0625 kg/ha): 0.0
Herbicidal rating SAGPY ([4]; rate 0.1250 kg/ha): 0.0
Herbicidal rating SAGPY ([4]; rate 0.2500 kg/ha): 0.0
GLXMAW herbicidal rating ([5]; rate 0.0156 kg/ha): 5.0
GLXMAW herbicidal rating ([5]; rate 0.0313 kg/ha): 5.5
GLXMAW herbicidal rating ([5]; rate 0.0625 kg/ha): 5.5
GLXMAW herbicidal rating ([5]; rate 0.1250 kg/ha): 7.5
ZEAMX herbicidal rating (ZEAMX (Corn, Field); rate 0.0156 kg/ha): 7.0
ZEAMX herbicidal rating (ZEAMX (Corn, Field); rate 0.0313 kg/ha): 7.0
ZEAMX herbicidal rating (ZEAMX (Corn, Field); rate 0.0625 kg/ha): 7.5
ZEAMX herbicidal rating (ZEAMX (Corn, Field); rate 0.1250 kg/ha): 8.0
Herbicidal rating CYPIR (CYPIR (Rice Flatsedge); 0.0156 kg/ha): 0.0
Herbicidal rating CYPIR (CYPIR (Rice Flatsedge); 0.0313 kg/ha): 0.0
Herbicidal rating CYPIR (CYPIR (Rice Flatsedge); 0.0625 kg/ha): 0.0
Herbicidal rating CYPIR (CYPIR (Rice Flatsedge); 0.1250 kg/ha): 0.5
Herbicidal rating CYPIR (CYPIR (Rice Flatsedge); 0.2500 kg/ha): 1.0
SETVI herbicidal rating (SETVI (Foxtail, Green) [6]; rate 0.0156 kg/ha): 0.0
SETVI herbicidal rating (SETVI (Foxtail, Green) [6]; rate 0.0313 kg/ha): 4.0
SETVI herbicidal rating (SETVI (Foxtail, Green) [6]; rate 0.0625 kg/ha): 4.0
SETVI herbicidal rating (SETVI (Foxtail, Green) [6]; rate 0.1250 kg/ha): 9.0
CHEAL herbicidal rating ([7]; rate 0.0156 kg/ha): 9.0
CHEAL herbicidal rating ([7]; rate 0.0313 kg/ha): 8.0
CHEAL herbicidal rating ([7]; rate 0.0625 kg/ha): 9.0
CHEAL herbicidal rating ([7]; rate 0.1250 kg/ha): 9.0
Herbicidal rating CYPSE (CYPSE (Flatsedge); rate 0.0313 kg/ha): 0.0
Herbicidal rating CYPSE (CYPSE (Flatsedge); rate 0.0625 kg/ha): 0.0
Herbicidal rating CYPSE (CYPSE (Flatsedge); rate 0.1250 kg/ha): 0.0
Herbicidal rating CYPSE (CYPSE (Flatsedge); rate 0.2500 kg/ha): 0.0
ORYSAT herbicidal rating (ORYSAT (Rice, Tebonnet); rate 0.0156 kg/ha): 1.5
ORYSAT herbicidal rating (ORYSAT (Rice, Tebonnet); rate 0.0313 kg/ha): 2.5
ORYSAT herbicidal rating (ORYSAT (Rice, Tebonnet); rate 0.0625 kg/ha): 2.5
ORYSAT herbicidal rating (ORYSAT (Rice, Tebonnet); rate 0.1250 kg/ha): 3.0
